Measurements as given in patent US20250304620A1, “ANTIMICROBIAL PEPTIDE AND APPLICATION THEREOF” (priority 2023, published 2025).
Values after ≈ are worked out from the molar mass of the structure shown. Like-named read-outs stand apart in the source and are kept apart here. Marks after values point to notes of the source that are not given here. Non-standard residues stand in square brackets, D forms with d. Residues, ends and D or L forms follow the SMILES beside them. PEG200 = polyethylene glycol 200, conjugated to the C-terminus; PEG500 = polyethylene glycol 500, conjugated to the C-terminus; dPhe(3,4-F2) = N[C@H](Cc1ccc(F)c(F)c1)C(=O)O; 2Nal = N[C@@H](Cc1ccc2ccccc2c1)C(=O)O; d2Nal = N[C@H](Cc1ccc2ccccc2c1)C(=O)O; PEG1000 = polyethylene glycol 1000

Assays:
[1] = test system: Staphylococcus aureus (NRS 384); assay: microbe, parasite or virus in culture; type: cell-based
In short: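 MICs were read against S. aureus strain NRS 384 using twofold serial dilution by CLSI microdilution rules. Levofloxacin and Cbf-K16 were the reference controls, and the test was repeated 5 times in parallel.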

[2] = test system: Staphylococcus aureus (NRS 384)
Experimental: Trypsin (250 U/mg, pH=8.0) and AMPs (LV-1 to LV-30) were mixed in a ratio of 1:10 (w/w) and added to a reaction buffer (0.2 M sodium phosphate, 1 mM CaCl2), pH 7.5), and then incubated at 37° C. for 3 h.

[3] = test system: Escherichia coli ATCC 25922; assay: Oral formulations on mice with systemic bacterial infection; type: in vivo, ICR mice; details: three times a day for 7 days; for Number of mice that died on each day after infection: day 4 / Number of mice that died on each day after infection: day 5 / Number of mice that died on each day after infection: day 6 / Number of mice that died on each day after infection: day 7 / Number of mice that died on each day after infection: day 8 / Average survival times (Days): n = 10; for Average survival times (Days): observed for 14 d; for survival time of mice infected with Escherichia coli: gavage, observed 14 d
In short: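 Survival time and deaths were logged over a 14 d observation after oral gavage dosing (by body weight, thrice daily, 7 days, starting right after infection). Model: mixed-sex ICR mice, n=10 per group, intraperitoneal injection of E. coli ATCC 25922 suspension (0.2 mL, 1×10^7 CFU/mL).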

[4] = test system: Candida tropicalis ATCC 750; type: cell-based
In short: (§1)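 MICs were determined by serial twofold dilution in microdilution format, following CLSI antimicrobial susceptibility testing standards. Each determination was repeated 5 times in parallel.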

[5] = test system: Trichophyton ATCC MYA-4438; type: cell-based
In short: as §1

[6] = test system: Escherichia coli ATCC 25922; type: cell-based
In short: as §1

Enterococcus ATCC 29212 = type: cell-based
In short: as §1

[7] = test system: Methicillin-sensitive Staphylococcus aureus (NRS 384); type: in vivo, ICR mice; details: 0.1 mL twice a day for 4 days, mouse back skin infection
Experimental: (§2) Both female and male ICR mice were used in the test, half of the female and male mice were taken and randomly assigned into groups, with 10 mice in each group, and kept in separate cages. The mice were divided into a blank group, a model group, a positive control Methicillin group, and topical formulation groups of AMPs LV-1 to LV-30. Suspensions of Methicillin-sensitive Staphylococcus aureus (NRS 384) and Methicillin-resistant Staphylococcus aureus (MRSA) were prepared, and their concentrations were adjusted to a concentration of 5×10^6 CFU/mL for subsequent use. Hair on backs of the mice was shaved with a shaver, wound was created on back skin of each mouse using a biopsy punch, and the wound was then infected with Methicillin-sensitive Staphylococcus aureus and Methicillin-resistant Staphylococcus aureus (0.1 mL, 5×10^6 CFU/mL) to establish infection models. Except for the blank group and the model group, all other groups received corresponding topical formulations applied directly to the infected areas, with a dose of 0.1 mL, twice a day for 4 consecutive days. On the day following the final administration, skin from the infected sites of each group was aseptically collected, and an antibacterial rate was calculated.

[8] = test system: Methicillin-resistant Staphylococcus aureus (MRSA); type: in vivo, ICR mice; details: 0.1 mL twice a day for 4 days, mouse back skin infection
Experimental: as §2

[9] = Staphylococcus aureus (NRS 384)
[10] = MIC vs Staphylococcus aureus (NRS 384) after trypsin treatment 1:10 (w/w), 37° C., 3 h

| Compound | MIC against Staphylococcus aureus (NRS 384) ([1]; NRS 384) | Trypsin MIC ([2]; NRS 384, 3 h) | Number of mice that died on each day after infection: day 4 ([3]; 1 mg/kg gavage) | Number of mice that died on each day after infection: day 5 ([3]; 1 mg/kg gavage) | Number of mice that died on each day after infection: day 6 ([3]; 1 mg/kg gavage) | Number of mice that died on each day after infection: day 7 ([3]; 1 mg/kg gavage) | Number of mice that died on each day after infection: day 8 ([3]; 1 mg/kg gavage) | Average survival times (Days) ([3]; 1 mg/kg gavage) | MIC Candida tropicalis ATCC 750 [4] | MIC Trichophyton ATCC MYA-4438 [5] | MIC Escherichia coli ATCC 25922 [6] | MIC Enterococcus ATCC 29212 (Enterococcus ATCC 29212) | MIC against Staphylococcus aureus (NRS 384) [1, 9] | Trypsin MIC [2, 10] | Inhibition rate against Methicillin-sensitive Staphylococcus aureus (%) ([7]; topical formulation 0.2 mg/mL) | Inhibition rate against Methicillin-sensitive Staphylococcus aureus (%) ([7]; topical formulation 1 mg/mL) | Inhibition rate against Methicillin-sensitive Staphylococcus aureus (%) ([7]; topical formulation 5 mg/mL) | Inhibition rate against Methicillin-resistant Staphylococcus aureus (%) ([8]; topical formulation 0.2 mg/mL) | Inhibition rate against Methicillin-resistant Staphylococcus aureus (%) ([8]; topical formulation 1 mg/mL) | Inhibition rate against Methicillin-resistant Staphylococcus aureus (%) ([8]; topical formulation 5 mg/mL) | other results |
| --- | --- | --- | --- | --- | --- | --- | --- | --- | --- | --- | --- | --- | --- | --- | --- | --- | --- | --- | --- | --- | --- |
| CC(=O)N[C@H](CCCNC(=N)N)C(=O)N[C@H](CCCNC(=N)N)C(=O)N[C@H](CC(C)C)C(=O)N[C@H](CC(C)C)C(=O)N[C@H](Cc1ccc2ccccc2c1)C(=O)N[C@H](CCCCN)C(=O)N[C@H](CC(C)C)C(=O)N[C@H](CCCCN)C(=O)N[C@H](Cc1ccc2ccccc2c1)C(=O)N[C@H](CCCCN)C(=O)N[C@H](CCCNC(=N)N)C(N)=O [LV-24] (Ac-[dR][dR][dL][dL][d2Nal][dK][dL][dK][d2Nal][dK][dR]-NH2) | 1 µg/mL (≈ 0.607 µM) | 1 µg/mL | 1 Mouse | 1 Mouse | 0 Mouse | 2 Mouse | 1 Mouse | 10.1*** Days | 8 µg/mL (≈ 4.86 µM) | 4 µg/mL (≈ 2.43 µM) | 1 µg/mL (≈ 0.607 µM) | 4 µg/mL (≈ 2.43 µM) |  |  |  |  |  |  |  |  |  |
| CC(=O)N[C@H](CCCCN)C(=O)N[C@H](CCCCN)C(=O)N[C@H](CC(C)C)C(=O)N[C@H](CC(C)C)C(=O)N[C@H](Cc1ccc(F)c(F)c1)C(=O)N[C@H](CCCNC(=N)N)C(=O)N[C@H](CC(C)C)C(=O)N[C@H](CCCCN)C(=O)N[C@H](Cc1ccc(F)c(F)c1)C(=O)N[C@H](CCCNC(=N)N)C(=O)N[C@H](CCCCN)C(N)=O [LV-25] (Ac-[dK][dK][dL][dL][dPhe(3,4-F2)][dR][dL][dK][dPhe(3,4-F2)][dR][dK]-NH2) | 1 µg/mL (≈ 0.629 µM) | 1 µg/mL | 1 Mouse | 1 Mouse | 0 Mouse | 1 Mouse | 1 Mouse | 10.8*** Days | 8 µg/mL (≈ 5.03 µM) | 8 µg/mL (≈ 5.03 µM) | 1 µg/mL (≈ 0.629 µM) | 2 µg/mL (≈ 1.26 µM) |  |  |  |  |  |  |  |  | Number of mice that died on each day after infection: day 4 ([3]; 0.2 mg/kg gavage): 1 Mouse; Number of mice that died on each day after infection: day 5 ([3]; 0.2 mg/kg gavage): 1 Mouse; Number of mice that died on each day after infection: day 6 ([3]; 0.2 mg/kg gavage): 2 Mouse; Number of mice that died on each day after infection: day 7 ([3]; 0.2 mg/kg gavage): 2 Mouse; Number of mice that died on each day after infection: day 8 ([3]; 0.2 mg/kg gavage): 1 Mouse; Average survival times (Days) ([3]; 0.2 mg/kg gavage): 8.5** Days; Number of mice that died on each day after infection: day 4 ([3]; 5 mg/kg gavage): 0 Mouse; Number of mice that died on each day after infection: day 5 ([3]; 5 mg/kg gavage): 3 Mouse; Number of mice that died on each day after infection: day 6 ([3]; 5 mg/kg gavage): 0 Mouse; Number of mice that died on each day after infection: day 7 ([3]; 5 mg/kg gavage): 2 Mouse; Number of mice that died on each day after infection: day 8 ([3]; 5 mg/kg gavage): 0 Mouse; Average survival times (Days) ([3]; 5 mg/kg gavage): 9.9** Days; survival time of mice infected with Escherichia coli [3]: superior to those of the Levofloxacin group |
| Ac-RKLLXRLKXRK-PEG200 [LV-26] (Ac-RKLL[2Nal]RLK[2Nal]RK-PEG200) [polyethylene glycol 200 conjugated to C-terminal; X=3-(2-naphthyl)-alanine] |  |  | 2 Mouse | 1 Mouse | 0 Mouse | 1 Mouse | 1 Mouse | 9.8** Days | 8 µg/mL | 16 µg/mL | 2 µg/mL | 8 µg/mL | 1 µg/mL | 1 µg/mL | 96.35% | 96.92% | 97.87% | 86.51% | 86.79% | 87.56% |  |
| Ac-RKLLXRLKXRK-PEG500 [LV-27] (Ac-RKLL[2Nal]RLK[2Nal]RK-PEG500) [polyethylene glycol 500 conjugated to C-terminal; X=3-(2-naphthyl)-alanine] |  |  | 0 Mouse | 1 Mouse | 1 Mouse | 0 Mouse | 1 Mouse | 11.7**** Days | 4 µg/mL | 8 µg/mL | 1 µg/mL | 2 µg/mL | 1 µg/mL | 1 µg/mL | 97.01% | 98.74% | 97.65% | 86.50% | 89.66% | 88.02% | Number of mice that died on each day after infection: day 4 ([3]; 0.2 mg/kg gavage): 1 Mouse; Number of mice that died on each day after infection: day 5 ([3]; 0.2 mg/kg gavage): 1 Mouse; Number of mice that died on each day after infection: day 6 ([3]; 0.2 mg/kg gavage): 2 Mouse; Number of mice that died on each day after infection: day 7 ([3]; 0.2 mg/kg gavage): 1 Mouse; Number of mice that died on each day after infection: day 8 ([3]; 0.2 mg/kg gavage): 0 Mouse; Average survival times (Days) ([3]; 0.2 mg/kg gavage): 9.8** Days; Number of mice that died on each day after infection: day 4 ([3]; 5 mg/kg gavage): 0 Mouse; Number of mice that died on each day after infection: day 5 ([3]; 5 mg/kg gavage): 2 Mouse; Number of mice that died on each day after infection: day 6 ([3]; 5 mg/kg gavage): 1 Mouse; Number of mice that died on each day after infection: day 7 ([3]; 5 mg/kg gavage): 0 Mouse; Number of mice that died on each day after infection: day 8 ([3]; 5 mg/kg gavage): 0 Mouse; Average survival times (Days) ([3]; 5 mg/kg gavage): 11.4**** Days; survival time of mice infected with Escherichia coli [3]: superior to those of the Levofloxacin group |
| Ac-RKLLXRLKXRK-PEG1000 [LV-28] (Ac-RKLL[2Nal]RLK[2Nal]RK-PEG1000) [polyethylene glycol 1000 conjugated to C-terminal; X=3-(2-naphthyl)-alanine] |  |  | 1 Mouse | 2 Mouse | 1 Mouse | 1 Mouse | 0 Mouse | 9.7** Days | 4 µg/mL | 8 µg/mL | 2 µg/mL | 8 µg/mL | 1 µg/mL | 1 µg/mL | 96.03% | 96.75% | 97.82% | 86.23% | 87.81% | 88.66% |  |
